Laboratory results taken from patent US20110009497A1, “DRUG-CONTAINING COMPOSITION” (FUJIFILM CORPORATION, priority 2008, published 2011).

Legend:
[1] = molecular target: T1, human vitamin D3 receptor (His-tag fusion protein) (Homo sapiens, UniProt P11473); assay: Elution by human serum of vitamin D3 bound to His-tag fusion vitamin D3 receptor protein immobilised on Ni-column, HPLC quantification; format: binding; details: carrier His-tag fusion vitamin D3 receptor protein on Ni-column; 20 ml human serum then 10 ml solution A at 0.1 ml/min
T1 construct: made in house; host or cells: Escherichia coli BL21 (DE3) Codon-plus, vector pQE30 Xa (QIAGEN)
T1 sequence (P11473 1-427): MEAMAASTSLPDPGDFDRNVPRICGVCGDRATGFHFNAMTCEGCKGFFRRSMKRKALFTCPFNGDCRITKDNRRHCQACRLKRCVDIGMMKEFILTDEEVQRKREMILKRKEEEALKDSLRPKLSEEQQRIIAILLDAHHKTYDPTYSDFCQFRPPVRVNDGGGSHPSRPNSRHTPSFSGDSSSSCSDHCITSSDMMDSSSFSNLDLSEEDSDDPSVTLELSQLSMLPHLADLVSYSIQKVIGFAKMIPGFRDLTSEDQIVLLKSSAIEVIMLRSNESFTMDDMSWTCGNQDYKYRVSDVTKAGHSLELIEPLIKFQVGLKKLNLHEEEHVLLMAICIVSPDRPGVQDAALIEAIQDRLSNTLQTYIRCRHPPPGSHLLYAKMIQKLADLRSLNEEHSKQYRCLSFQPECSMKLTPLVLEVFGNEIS
Experimental: (§1) For culture, an LB (Luria-Bertani) medium containing 100 μg/ml ampicillin was used. Preculture was carried out with the use of a 300-mL LB medium contained in a 500-mL Erlenmeyer flask at 37° C. Then, for main culture, 30 mL of the preculture solution was added to a 1.5-L LB medium (containing 100 μg/ml ampicillin) contained in a 3-L baffled Erlenmeyer flask and subjected to shake culture at 37° C. so as to result in 0.6 OD600. Thereafter, IPTG was added thereto to a final concentration of 0.5 mM for expression induction, followed by overnight shake culture at 30° C. Subsequently, cells were collected by centrifugation and washed. The obtained bacterial cells were suspended in 200 mM NaCl, 50 mM sodium phosphate buffer, and 10 mM imidazole (pH 8.0), followed by ultrasonic disintegration for 5 minutes and centrifugation at 44,200×g for 30 minutes. Thus, the supernatant was obtained. The obtained supernatant was introduced at a flow rate of 0.1 ml/min into an Ni-column (Ni-NTA His-Bind Resin: Novagen; column volume: 50 ml) that had been preliminarily equilibrated with a solution A (300 mM NaCl, 50 mM sodium phosphate buffer, 20 mM imidazole, pH 8.0) for immobilization. […]

[2] = molecular target: T2, human albumin (His-tag fusion protein) (Homo sapiens, UniProt P02768); assay: Elution by human serum of vitamin D3 bound to His-tag fusion albumin immobilised on Ni-column, HPLC quantification (Comparative Example 1); format: binding; details: carrier His-tag fusion albumin on Ni-column; human serum 20 ml at 0.1 ml/min, then buffer
T2 construct: made in house; host or cells: Escherichia coli BL21 (DE3) Codon-plus, vector pQE30 Xa (QIAGEN)
Experimental: as §1, with “A human albumin sequence was expressed with the use of Escherichia coli BL21 (DE3) Codon-plus as a His-tag fusion protein (using a vector (pQE30 Xa; QIAGEN)). For” for “For”

[3] = system: osteoporosis model rats (ovariectomized aged rats); assay: Bone regeneration in osteoporosis model rats (ovariectomized aged rats); format: in vivo, rat; details: calcitriol dissolved with vitamin D3 receptor carrier protein; i.v. 3 times per week, 0.3 μg/kg; four months later
Experimental: The resultant was allowed to stand still overnight at 22° C. and eluted with a solution A as in the case of Example 1. The eluate was introduced into a benzamidine column (GE Healthcare Bioscience; HiTrap Benzamidine FF (high sub) column) in a general purification step, during which a high-purity vitamin D3 receptor protein was purified. Accordingly, a drug carrier was obtained.
The obtained liquid was administered 3 times per week via intravenous injection to osteoporosis model rats (ovariectomized aged rats) such that the calcitriol concentration was maintained at 0.3 μg/kg.

T2 sequence (P02768 25-609): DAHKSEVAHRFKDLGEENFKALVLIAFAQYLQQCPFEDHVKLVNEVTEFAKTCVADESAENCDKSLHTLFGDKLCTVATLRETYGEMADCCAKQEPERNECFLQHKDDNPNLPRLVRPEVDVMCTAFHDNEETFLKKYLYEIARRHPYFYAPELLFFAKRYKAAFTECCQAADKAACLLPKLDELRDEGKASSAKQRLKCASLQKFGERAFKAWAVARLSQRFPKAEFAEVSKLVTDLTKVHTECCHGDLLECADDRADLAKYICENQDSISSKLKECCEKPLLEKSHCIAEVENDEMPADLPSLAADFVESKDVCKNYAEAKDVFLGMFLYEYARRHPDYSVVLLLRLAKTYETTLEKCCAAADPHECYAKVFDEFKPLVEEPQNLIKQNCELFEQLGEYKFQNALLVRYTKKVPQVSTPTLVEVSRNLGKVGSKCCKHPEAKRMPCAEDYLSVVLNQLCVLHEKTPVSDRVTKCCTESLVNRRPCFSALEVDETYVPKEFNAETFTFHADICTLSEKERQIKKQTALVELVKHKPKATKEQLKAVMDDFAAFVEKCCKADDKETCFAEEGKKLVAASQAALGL

SMILES | amount of vitamin D3 eluted from the column, of the total amount of bound vitamin [1] | amount of vitamin D3 eluted from the column, of the total amount of bound vitamin [2] | induction of bone regeneration [3]
C=C1CC[C@H](O)C/C1=C/C=C1\CCC[C@]2(C)[C@@H]([C@H](C)CCCC(C)C)CC[C@@H]12 [Vitamin D3, vitamin D3] | approximately 5% | approximately 70% | 
C=C1/C(=C\C=C2/CCC[C@]3(C)[C@@H]([C@H](C)CCCC(C)(C)O)CC[C@@H]23)C[C@@H](O)C[C@@H]1O [calcitriol, 1α,25-dihydroxyvitamin D3] |  |  | induction of bone regeneration in the rats was confirmed
